Assay results as given in patent publication US10653693B2, “PRMT5 inhibitors and uses thereof” (Epizyme, Inc., priority 2014, dated 2020).

Tested on: cellular methylation (symmetric di-methyl arginine) in Z-138 cells
Assay: In Cell Western (ICW) methylation assay, SYM11 antibody
Format: cell-based
Settings: Homo sapiens, 96 h, 4 days of treatment, n=1
Experimental: Percent inhibition was determined and IC50 curves were generated using triplicate wells per concentration of compound. IC50 values were calculated using GraphPad Prism using a 4-parametric fit of the normalized dose response curves with the top fixed to 100%. Z-138 suspension cells were purchased from ATCC (American Type Culture Collection, Manassas, Va.). RPMI/Glutamax medium, penicillin-streptomycin, heat inactivated fetal bovine serum, and D-PBS were purchased from Life Technologies, Grand Island, N.Y., USA. Odyssey blocking buffer, 800CW goat anti-rabbit IgG (H+L) antibody, and Licor Odyssey infrared scanner were purchased from Licor Biosciences, Lincoln, Nebr., USA. Symmetric di-methyl arginine antibody was purchased from EMD Millipore, Billerica, Mass., USA. 16% Paraformaldehyde was purchased from Electron Microscopy Sciences, Hatfield, Pa., USA. Z-138 suspension cells were maintained in growth medium (RPMI 1640 supplemented with 10% v/v heat inactivated fetal bovine serum and 100 units/mL penicillin-streptomycin) and cultured at 37° C. under 5% CO2. […] The average of the ratio values for each control type was calculated and used to determine the percent inhibition for each test well in the plate. […] Percent inhibition was determined and IC50 curves were generated using triplicate wells per concentration of compound. […]

IC50: 0.64 nM
SMILES: CC(=O)N1CCC(Nc2cc(C(=O)NC[C@H](O)CN3CCc4ccccc4C3)ccn2)CC1 [Formula B]
